Test results: ChEMBL document CHEMBL4219097, “Synthesis of 3-aza[4.4.3]propellanes with high σ1 receptor affinity” (Bioorg Med Chem, 2018)
pKi: −log10 of the molar value.

How the values were obtained:
[1] = target: Sigma non-opioid intracellular receptor 1 (Cavia porcellus, UniProt Q60492); assay: Displacement of [3H]-(+)-pentazocine from sigma1 receptor in guinea pig brain cortex membranes measured after 120 mins by scintillation counting method; type: cell membranes
[2] = target: T1, Sigma intracellular receptor 2 (Rattus norvegicus, UniProt Q5U3Y7); assay: Displacement of [3H]DTG from sigma 2 receptor in rat liver membranes measured after 120 mins by scintillation counting method; type: cell membranes, Membrane
T1 sequence (Q5U3Y7 whole entry): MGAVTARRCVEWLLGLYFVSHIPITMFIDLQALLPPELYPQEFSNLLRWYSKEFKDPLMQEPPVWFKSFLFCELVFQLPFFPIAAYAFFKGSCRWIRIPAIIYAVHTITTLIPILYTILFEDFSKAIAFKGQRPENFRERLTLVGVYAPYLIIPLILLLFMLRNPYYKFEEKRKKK

[3] = Selectivity ratio of Ki for displacement of [3H]DTG from sigma 2 receptor in rat liver membranes to Ki for displacement of [3H]-(+)-pentazocine from sigma1 receptor in guinea pig brain cortex membranes; type: cell membranes
[4] = target: T2, Sigma intracellular receptor 2 (Rattus norvegicus) (UniProt Q5U3Y7); assay: Displacement of [3H]DTG from sigma 2 receptor in rat liver membranes at 1 uM measured after 120 mins by scintillation counting method; type: cell membranes; details: Membrane
T2 sequence (whole entry): T1 sequence (Q5U3Y7 whole entry)

[5] = target: Sigma non-opioid intracellular receptor 1 (Cavia porcellus) (UniProt Q60492); assay: Displacement of [3H]-(+)-pentazocine from sigma1 receptor in guinea pig brain cortex membranes at 1 uM measured after 120 mins by scintillation counting method; type: cell membranes
Sigma non-opioid intracellular receptor 1 (Cavia porcellus), sequence (Q60492 whole entry): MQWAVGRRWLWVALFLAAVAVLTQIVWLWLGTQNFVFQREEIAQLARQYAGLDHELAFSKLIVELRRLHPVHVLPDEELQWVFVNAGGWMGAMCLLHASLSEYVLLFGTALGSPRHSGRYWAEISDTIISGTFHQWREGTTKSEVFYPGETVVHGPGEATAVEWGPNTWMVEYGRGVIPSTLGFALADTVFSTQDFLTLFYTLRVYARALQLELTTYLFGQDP

Sigma non-opioid intracellular receptor 1, sequence (Q60492 whole entry): as above

Row | pKi [1] | pKi [2] | Ratio Ki [3] | inhibition [4] | inhibition [5] | Structure (SMILES)
1 |  |  | > 12 | 8% |  | COc1ccc(C)cc1NC(=O)OC1CC23CCCCC2(C1)CN(Cc1ccccc1)CC3 (racemic; anti) [listing 1 of 2 here]
2 |  |  |  | 0% | 12% | COc1ccc(C)cc1NC(=O)OC1CC23CCCCC2(C1)CN(Cc1ccccc1)CC3 (racemic; syn)
3 | 7.09 |  |  |  |  | COc1ccc(C)cc1NC(=O)OC1CC23CCCCC2(C1)CN(Cc1ccccc1)CC3 (racemic; anti) [listing 2 of 2 here]
4 |  |  | 17 |  |  | OC1CC23CCCCC2(C1)CN(Cc1ccccc1)CC3 (racemic; anti) [listing 2 of 2 here]

The next lines start with the compound.

Row | Structure (SMILES) | pKi [1] | pKi [2] | Ratio Ki [3] | inhibition [4] | inhibition [5]
5 | OC1CC23CCCCC2(C1)CN(Cc1ccccc1)CC3 (racemic; anti) [listing 1 of 2 here] | 6.91 | 5.69 |  |  | 
6 | OC1CC23CCCCC2(C1)CN(Cc1ccccc1)CC3 (racemic; syn) [listing 1 of 2 here] |  |  | 2 |  | 
7 | c1ccc(CN2CCC34CCCCC3(CCC4)C2)cc1 (racemic) | 7.77 | 6.72 | 11 |  | 
8 | OC1CC23CCCCC2(C1)CN(Cc1ccccc1)CC3 (racemic; syn) [listing 2 of 2 here] | 6.47 | 6.16 |  |  | 
